Source: US6352996B1, “Liposomal prodrugs comprising derivatives of camptothecin and methods of treating cancer using these prodrugs” (priority 1999, dated 2002)
Read-outs that look alike come from different tables or passages of the source.

Key:
U-937 cells = assay: Growth inhibition of U-937 cells treated with CPT esters; assay type: cell-based; conditions: 0.2 μM, 120 hr, percent of exponential growth of untreated cells (100%), mean of four estimates
Description: Growth inhibition of U-937 cells treated with various CPT esters.
Each identified compound was added to reach a culture of U-937 cell having a final concentration of 0.2 μM. The treatment time was for 120 hr. Growth inhibition in each of the treated cultures was then estimated as a percent of the exponential growth of the cells that was considered 100%. Each estimate was the mean value of four estimates.

CLO breast carcinoma = assay: Human breast carcinoma CLO xenograft in nude mice; assay type: in vivo; conditions: 8 mg/kg intramuscular twice a week, day 55 (FIG. 16)
Text: Swiss nude mice of the NIH high fertility strain were bred and maintained pathogen-free in a laboratory. (Giovanella, B. C. and Stehlin, J. S. “Heterotransplantation of human malignant tumors in ‘nude’ thymusless mice. I. Breeding and maintenance of ‘nude’ mice.” J. Natl. Cancer Inst. 51: 615-619; 1973.)
Human malignant carcinomas of the colon, breast, lung, ovary, stomach, pancreas, bladder, prostate, osteosarcoma and malignant melanomas were heterotransplanted directly from patients into the nude mice and passaged serially. In particular, the tumors CLO, MUR, CAS, SW 48, SQU and BRO as described in Giovanella, B. C., Stehlin, J. S., Shepard, R. C. and Williams, L. J. “Correlation between response to chemotherapy of human tumors in patients and in nude mice.” Cancer 52: 1146-1152; 1983, tumor SCH as described in Heim, S., Mandahl, N., Arheden, K., Giovanella, B. C., Yim, S. O., Stehlin, J. S., Jr. and Mitebman, F. “Multiple karyotypic abnormalities including structural rearrangements of 11P in cell lines from malignant melanomas.” Cancer Genet. Cytogent, 35:5-20; 1988, and Verschraegen, C., Ciovanella, B. C., Mendoza, J. T., Kozielski, A. J. and Stehlin, J. S., Jr. “Specific organ metastases of human melanoma cells injected into the arterial circulation of nude mice.” Anticancer Res., In Press, and tumor PC-3 as described in Invest. Urol. 17, 16-23, 1979, were used. […]

[1] = Closed lactone form in human plasma after oral administration; conditions: for % present as closed lactone form in human blood/plasma: after oral administration (FIGS. 2, 4, 5, 7, 8)
human tumor xenografts [2] = conditions: in mice; cited from earlier work
human malignancies = assay: Clinical responses in Phase I clinical trial patients; assay type: in vivo; conditions: in humans
[3] = Closed lactone form in plasma of mice after intrastomach administration; assay type: in vivo; conditions: after i.s. administration, mouse (FIG. 3)
human tumor xenografts [4] = tested on: human tumor xenografts
[5] = Stability of lactone form in human plasma; assay type: in vitro ADME; conditions: for Percent in plasma (lactone, percent of the initial lactone amount added): 1 μg/ml
Description: CPT or SF6A lactone was added to human plasma (1 μg/ml) and an incubation and lactone determination were made as described in Example 15. The lactone amount at each time-point was detected after removing the carboxylate form, and subsequently was calculated as percent of the initial lactone amount added. The results shown in this Table below were derived from one of the three independent experiments performed using different incubation times. The pattern of quantitation of the lactones was similar in all three experiments.

[6] = mouse liver homogenate, 2 μg SF6A/ml, 37° C.
Description: Determination of SF6A (Prodrug 2) and CPT in liver homogenate.
Mouse liver was homogenized in 4 volumes of ice-cold 0.15 M KCl with the aid of a Dounce homogenizer, then centrifuged at 15000 G for 10 min to remove particulate material. The supernatant, designated as liver homogenate, was transferred into a capped polypropylene tube, mixed with 2 μg SF6A/ml and incubated in a 37° C. water-bath. At the desired times, samples were removed and mixed with 4 volumes of ice-cold ethanol to precipitate proteins. The samples were stored at −20° C. until all were collected. Following centrifugation at 15000 G for 10 min, the clarified supernatants were subjected to analysis for determination of SF6A and CPT lactones by high pressure liquid chromatography (HPLC). The compounds were detected by fluorescence spectroscopy setting the excitation and emission wavelengths at 347 nm and 418 nm, respectively. CPT and SF6A have characteristic retention times of 3.5 min and 13.5 min, respectively.

[7] = Changes of body weights of mice during the test time period (toxicity); assay type: in vivo; conditions: nude mice
Text: The preferred derivatives display significant antitumor activity with much lower toxicity than their parent camptothecin, CPT. The animal experimental data for these new derivatives were collected. Camptothecin 20(S) propioniate (where R1 is ethyl and R2 is H) is designated as Prodrug 2 and taken as a example to disclose some in vivo experimental data. FIG. 6 represents the antitumor activity of this compound in different doses against the implanted human breast carcinoma (CLO) in nude mice. The change of body weight of mice is recorded with the time.

## CC[C@@]1(OC(C)=O)C(=O)OCc2c1cc1n(c2=O)Cc2cc3ccccc3nc2-1 [CPT-acetate]
U-937 cells
  Growth %: 92 ± 4%

## CC=CC(=O)OC1(CC)C(=O)OCc2c1cc1n(c2=O)Cc2cc3ccccc3nc2-1 (stereo not drawn) [Compound IB, Camptothecin 20-O crotonate]
CLO breast carcinoma
  tumor size: actually reducing the tumor size

## CCC1(OC(=O)C2OC2C)C(=O)OCc2c1cc1n(c2=O)Cc2cc3ccccc3nc2-1 (stereo not drawn) [Compound IC, Camptothecin 20-O-2′, 3′-epoxy-butyrate]
CLO breast carcinoma
  tumor size: stabilize the tumor size after a certain amount of time

## CC[C@@]1(O)C(=O)OCc2c1cc1n(c2=O)Cc2cc3c([N+](=O)[O-])cccc3nc2-1 [Example 9NC, 9-nitrocamptothecin, reference compound]
[1]
  % present as closed lactone form in human blood/plasma: ~3%
[1]; oral administration to Phase I clinical trial patients, on average (FIGS. 4 and 5)
  drug present in plasma in the closed lactone form: ~3%
Human tumor xenografts [2]
  potency relative to CPT against human tumor xenografts: 2-3 times
Human malignancies
  complete tumor regressions: 2/32
[3]
  drug present in the plasma in the closed lactone form: 57%
Human tumor xenografts [4]; in mice
  complete tumor regressions: 32/32

## CCC(=O)O[C@]1(CC)C(=O)OCc2c1cc1n(c2=O)Cc2cc3ccccc3nc2-1 [Prodrug 2, Camptothecin 20-O-propionate]
[1]
  % present as closed lactone form in human blood/plasma: 2.8%
[1]; human, oral administration, versus CPT or 9NC
  increase of lactone share over the parent compound: sevenfold
[5]; Time 0 Hr
  Lactone % in Human Plasma: 100%
[5]; Time 1 Hr
  Lactone % in Human Plasma: 86%
[5]; Time 2 Hr
  Lactone % in Human Plasma: 77%
[5]; Time 4 Hr
  Lactone % in Human Plasma: 68%
[5]; Time 6 Hr
  Lactone % in Human Plasma: 56%
[5]; human plasma
  time the lactone ring remained intact, versus CPT: much longer
[5]; human plasma, incubation time 0.0 hr
  Percent in plasma (lactone, percent of the initial lactone amount added): 100.0%
[5]; human plasma, incubation time 1.0 hr
  Percent in plasma (lactone, percent of the initial lactone amount added): 86.0%
[5]; human plasma, incubation time 2.0 hr
  Percent in plasma (lactone, percent of the initial lactone amount added): 77.0%
[5]; human plasma, incubation time 4.0 hr
  Percent in plasma (lactone, percent of the initial lactone amount added): 68.0%
[5]; human plasma, incubation time 6.0 hr
  Percent in plasma (lactone, percent of the initial lactone amount added): 56.0%
[5]; human plasma, incubation time 27.0 hr
  Percent in plasma (lactone, percent of the initial lactone amount added): 9.0%
[6]; incubation 0 min
  Amount determined: CPT (formed from SF6A): 0.00 µg/mL
  Amount determined: SF6A: 1.95 µg/mL
[6]; incubation 10 min
  Amount determined: CPT (formed from SF6A): 0.00 µg/mL
  Amount determined: SF6A: 2.06 µg/mL
[6]; incubation 60 min
  Amount determined: CPT (formed from SF6A): 0.00 µg/mL
  Amount determined: SF6A: 2.05 µg/mL
[6]; incubation 6 hr
  Amount determined: CPT (formed from SF6A): 0.00 µg/mL
  Amount determined: SF6A: 2.05 µg/mL
[6]; incubation 24 hr
  Amount determined: CPT (formed from SF6A): 0.47 µg/mL
  Amount determined: SF6A: 0.96 µg/mL
[6]; incubation 48 hr
  Amount determined: CPT (formed from SF6A): 0.30 µg/mL
  Amount determined: SF6A: 0.90 µg/mL
[7]; dose 5 mg/kg, day 21
  Body weight: 21/33 gms
[7]; dose 5 mg/kg, day 27
  Body weight: 27/33.7 gms
[7]; dose 5 mg/kg, day 34
  Body weight: 34/34.3 gms
[7]; dose 5 mg/kg, day 41
  Body weight: 41/33.5 gms
[7]; dose 5 mg/kg, day 48
  Body weight: 48/32.9 gms
[7]; dose 5 mg/kg, day 56
  Body weight: 56/33.2 gms
[7]; dose 6 mg/kg, day 21
  Body weight: 21/32.9 gms
[7]; dose 6 mg/kg, day 27
  Body weight: 27/33.4 gms
[7]; dose 6 mg/kg, day 34
  Body weight: 34/33.8 gms
[7]; dose 6 mg/kg, day 41
  Body weight: 41/33.5 gms
[7]; dose 6 mg/kg, day 48
  Body weight: 48/34.0 gms
[7]; dose 6 mg/kg, day 56
  Body weight: 56/32.2 gms
[7]; dose 7 mg/kg, day 21
  Body weight: 21/30.8 gms
[7]; dose 7 mg/kg, day 27
  Body weight: 27/31.7 gms
[7]; dose 7 mg/kg, day 34
  Body weight: 34/30.6 gms
[7]; dose 7 mg/kg, day 41
  Body weight: 41/31.1 gms
[7]; dose 7 mg/kg, day 48
  Body weight: 48/31.6 gms
[7]; dose 7 mg/kg, day 56
  Body weight: 56/31.5 gms
[7]; dose 8 mg/kg, day 21
  Body weight: 21/32.9 gms
[7]; dose 8 mg/kg, day 27
  Body weight: 27/34.1 gms
[7]; dose 8 mg/kg, day 34
  Body weight: 34/34.0 gms
[7]; dose 8 mg/kg, day 41
  Body weight: 41/33.4 gms
[7]; dose 8 mg/kg, day 48
  Body weight: 48/33.9 gms
[7]; dose 8 mg/kg, day 56
  Body weight: 56/33.2 gms
[7]; doses 5-8 mg/kg
  change of body weight of mice during the test time period: no losses of mice body weights
U-937 cells
  Growth %: 31 ± 2%
Human tumor xenografts [4]; mice
  toxicity: exceptional lack of toxicity, even at enormous doses in mice
Human tumor xenografts [4]; nude mice
  antitumor activity against xenografts of human tumors: exhibits antitumor activity against human tumor xenografts
